Where a name gives a salt, the structure may show the parent alone. Read-outs that look alike come from different tables or passages of the source.
Assays:
Mino cells = assay: Inhibition of cell proliferation, Mino cells (Cell Viability Assay, 72 h); format: cell-based, human
Protocol: (§1) SU-DHL-4, Mino, and SU-DHL-6 cells, in the culture medium of RPMI1640+10% FBS, were cultured in an incubator at 37° C. under 5% CO2. Cells were plated in a 96-well plate. Specifically, SU-DHL-4 cells were at 20000/well, Mino and SU-DHL-6 cells were at 5000/well, with 90 μL/well. 10 μL of the compounds at different concentrations were added to each well. There were 3 replicate wells for each concentration, and the last column, added with DMSO, was used as a vehicle control group. The cultures were continued for 72 hours at 37° C. under 5% CO2. After 72 hours, 100 μL of detection reagent (Cell Viability Assay, Promega, G7573) was added to each well, and the cultures were uniformly mixed for 2 minutes, and incubated at room temperature for 10 minutes. The fluorescence signal value was measured with a microplate reader (PHERAstar FSX). The IC50 value of the compound on cell proliferation inhibition was calculated using Origin 9.2 software, and the inhibition rate at the highest concentration of the compound (Max inhi. %) was calculated according to formula (1). Max inhi. %=(1-T72 administration/T72 vehicle)×100 Formula (1).

[1] = Pharmacokinetic experiment in rats (i.g. vehicle 0.5% MC); format: in vivo; details: male SD rats; for AUC(0-t): i.g. 20 mg/kg, vehicle 0.5% MC
Protocol: Objective: In this experiment, a single dose of each test compound was administered to SD rats intravenously and intragastrically, the concentrations of the test compound in plasma of rats were measured, and the pharmacokinetic characteristics and bioavailability of the test compound in rats were evaluated.
Experimental animals: Male SD rats, 200-250 g, 6-8 weeks old, 6 rats/test compound. The experimental animals were purchased from CHENGDU DOSSY EXPERIMENTAL ANIMALS CO., LTD.
Experimental method: On the day of the experiment, 6 SD rats were randomly grouped according to their body weight. The animals were fasted with water available for 12 to 14 hours one day before the administration of a test compound, and were fed 4 hours after the administration.
Sampling: Before and after the administration, 0.1 ml of blood was taken from the orbit of the rats under isoflurane anesthesia, and placed in an EDTAK2 centrifuge tube. Centrifugation was carried out at 5000 rpm at 4° C. for 10 min and the plasma was collected.
Time points for plasma collection in G1 group: 0, 5 m, 15 m, 30 m, 1 h, 2 h, 4 h, 6 h, 8 h, and 24 h.
Time points for plasma collection in G2 group: 0, 15 m, 30 m, 1 h, 2 h, 4 h, 6 h, 8 h, and 24 h.
Before analysis and detection, all samples were stored at −80° C. The samples were analyzed quantitatively by LC-MS/MS.

SU-DHL-4 cells = assay: Inhibition of cell proliferation, SU-DHL-4 cells (Cell Viability Assay, 72 h); format: cell-based, human; details: Homo sapiens
Protocol: as §1

SU-DHL-6 cells = assay: Inhibition of cell proliferation, SU-DHL-6 cells (Cell Viability Assay, 72 h); format: cell-based; details: Homo sapiens
Protocol: as §1

[2] = Sprague-Dawley (SD), rat, po, plasma, read-out: AUC0-t

Row | IC50 (SU-DHL-4 cells) [nM] | IC50 (SU-DHL-6 cells) [nM] | AUC(0-t) [1, 2] [ng·h/mL] | SMILES | IC50 (Mino cells; Homo sapiens) [nM] | also measured
1 | – | – | – | Nc1ncnc2c1c(-c1ccc(Oc3ccccc3)cc1)nn2[C@@H]1CCN(C2CCN(C3CN(c4ccc5c(c4)C(=O)N(C4CCC(=O)NC4=O)C5=O)C3)CC2)C[C@H]1F (relative stereo) [Compound 20-1, trans-5-(3-(4-(4-amino-3-(4-phenoxyphenyl)-1H-pyrazolo[3,4-d]pyrimidin-1-yl)-3-fluoro-[1,4′-bipiperidin]-1′-yl)azetidin-1-yl)-2-(2,6-dioxopiperidin-3-yl)isoindoline-1,3-dione] | – | IC50 (Mino cells): 32 nM; AUC(0-t) ([1]; plasma): 891 ± 164 ng·h/mL
2 | 41 | 26 | 18.6 ± 2.8 | Nc1ncnc2c1c(-c1ccc(Oc3ccccc3)cc1)nn2C1CCN(C2CCN(C3CCN(c4ccc5c(c4)C(=O)N(C4CCC(=O)NC4=O)C5=O)CC3)CC2)CC1 (centres unmarked) [Compound 2, 5-[4-[4-[4-[4-amino-3-(4-phenoxyphenyl)pyrazolo[3,4-d]pyrimidin-1-yl]-1-piperidyl]-1-piperidyl]-1-piperidyl]-2-(2,6-dioxo-3-piperidyl)isoindoline-1,3-dione] | 633 | –
3 | – | – | 211 ± 46 | Nc1ncnc2c1c(-c1ccc(Oc3ccccc3)cc1)nn2C1CCN(c2cnc(N3CC4CN(c5ccc6c(c5)C(=O)N(C5CCC(=O)NC5=O)C6=O)CC4C3)nc2)CC1 (centres unmarked) [Compound 3, 5-[5-[5-[4-[4-amino-3-(4-phenoxyphenyl)pyrazolo[3,4-d]pyrimidin-1-yl]-1-piperidyl]pyrimidin-2-yl]-1,3,3a,4,6,6a-hexahydropyrrolo[3,4-c]pyrrol-2-yl]-2-(2,6-dioxo-3-piperidyl)isoindoline-1,3-dione tetratrifluoroacetate] | – | –
4 | – | – | 36 ± 10 | Nc1ncnc2c1c(-c1ccc(Oc3ccccc3)cc1)nn2C1CCN(c2cnc(N3CC4(CCN(c5ccc6c(c5)C(=O)N(C5CCC(=O)NC5=O)C6=O)CC4)C3)nc2)CC1 (centres unmarked) [Compound 4, 5-[2-[5-[4-[4-amino-3-(4-phenoxyphenyl)pyrazolo[3,4-d]pyrimidin-1-yl]-1-piperidyl]pyrimidin-2-yl]-2,7-diazaspiro[3.5]nonan-7-yl]-2-(2,6-dioxo-3-piperidyl)isoindoline-1,3-dione] | – | –
5 | – | – | 81.7 ± 68 | Nc1ncnc2c1c(-c1ccc(Oc3ccccc3)cc1)nn2C1CCN(c2cnc(N3CCC4(CC3)CN(c3ccc5c(c3)C(=O)N(C3CCC(=O)NC3=O)C5=O)C4)nc2)CC1 (centres unmarked) [Compound 5, 5-[7-[5-[4-[4-amino-3-(4-phenoxyphenyl)pyrazolo[3,4-d]pyrimidin-1-yl]-1-piperidyl]pyrimidin-2-yl]-2,7-diazaspiro[3.5]nonan-2-yl]-2-(2,6-dioxo-3-piperidyl)isoindoline-1,3-dione] | – | –
6 | – | 166 | 328 ± 41 | Nc1ncnc2c1c(-c1ccc(Oc3ccccc3)cc1)nn2C1CCN(CC2CCN(C3CN(c4ccc5c(c4)C(=O)N(C4CCC(=O)NC4=O)C5=O)C3)CC2)CC1 (centres unmarked) [Compound 6, 5-(3-(4-((4-(4-amino-3-(4-phenoxyphenyl)-1H-pyrazolo[3,4-d]pyrimidin-1-yl)piperidin-1-yl)methyl)piperidin-1-yl)azetidin-1-yl)-2-(2,6-dioxopiperidin-3-yl)isoindoline-1,3-dione tritrifluoroacetate] | 421 | –
7 | – | – | 105 ± 54 | Nc1ncnc2c1c(-c1ccc(Oc3ccccc3)cc1)nn2C1CCN(Cc2cnc(N3CC4(CCN(c5ccc6c(c5)C(=O)N(C5CCC(=O)NC5=O)C6=O)CC4)C3)nc2)CC1 (centres unmarked) [Compound 7, 5-[2-[5-[[4-[4-amino-3-(4-phenoxyphenyl)pyrazolo[3,4-d]pyrimidin-1-yl]-1-piperidyl]methyl]pyrimidin-2-yl]-2,7-diazaspiro[3.5]nonan-7-yl]-2-(2,6-dioxo-3-piperidyl)isoindoline-1,3-dione tritrifluoroacetate] | – | –
8 | – | 77 | – | Nc1ncnc2c1c(-c1ccc(Oc3ccccc3)cc1)nn2C1CCN(CC2CN(C3CCN(c4ccc5c(c4)C(=O)N(C4CCC(=O)NC4=O)C5=O)CC3)C2)CC1 (centres unmarked) [Compound 10, 5-(4-(3-((4-(4-amino-3-(4-phenoxyphenyl)-1H-pyrazolo[3,4-d]pyrimidin-1-yl)piperidin-1-yl)methyl)azetidin-1-yl)piperidin-1-yl)-2-(2,6-dioxopiperidin-3-yl)isoindoline-1,3-dione Tetratrifluoroacetate] | 405 | –
9 | 189 | 109 | – | Nc1ncnc2c1c(-c1ccc(Oc3ccccc3)cc1)nn2C1CCN(C2CN(C3CCN(C4CCN(C5CCN(c6ccc7c(c6)C(=O)N(C6CCC(=O)NC6=O)C7=O)CC5)CC4)CC3)C2)CC1 (centres unmarked) [Compound 11, 5-[4-[4-[4-[3-[4-[4-amino-3-(4-phenoxyphenyl)pyrazolo[3,4-d]pyrimidin-1-yl]-1-piperidyl]azetidin-1-yl]-1-piperidyl]-1-piperidyl]-1-piperidyl]-2-(2,6-dioxo-3-piperidyl)isoindoline-1,3-dione Hexatrifluoroacetate] | 114 | –
10 | 56 | 106 | – | Nc1ncnc2c1c(-c1ccc(Oc3ccccc3)cc1)nn2C1CCN(C2CCN(C3CCN(C4CCN(c5ccc6c(c5)C(=O)N(C5CCC(=O)NC5=O)C6=O)CC4)CC3)CC2)CC1 (centres unmarked) [Compound 12, 5-[4-[4-[4-[4-[4-amino-3-(4-phenoxyphenyl)pyrazolo[3,4-d]pyrimidin-1-yl]-1-piperidyl]-1-piperidyl]-1-piperidyl]-1-piperidyl]-2-(2,6-dioxo-3-piperidyl)isoindoline-1,3-dione pentatrifluoroacetate] | 183 | –
11 | 60 | 86 | – | Nc1ncnc2c1c(-c1ccc(Oc3ccccc3)cc1)nn2C1CCN(C2CCN(C3CCN(C4CCN(C5CCN(c6ccc7c(c6)C(=O)N(C6CCC(=O)NC6=O)C7=O)CC5)CC4)CC3)CC2)CC1 (centres unmarked) [Compound 14, 5-[4-[4-[4-[4-[4-[4-amino-3-(4-phenoxyphenyl)pyrazolo[3,4-d]pyrimidin-1-yl]-1-piperidyl]-1-piperidyl]-1-piperidyl]-1-piperidyl]-1-piperidyl]-2-(2,6-dioxo-3-piperidyl)isoindoline-1,3-dione Hexatrifluoroacetate] | – | –
12 | – | 782 | – | Nc1ncnc2c1c(-c1ccc(Oc3ccccc3)cc1)nn2C1CCN(C2CN(C3CN(c4ccc5c(c4)C(=O)N(C4CCC(=O)NC4=O)C5=O)C3)C2)CC1F (stereo not drawn) [Compound 19, trans-5-(3-(4-(4-amino-3-(4-phenoxyphenyl)-1H-pyrazolo[3,4-d]pyrimidin-1-yl)-3-fluoropiperidin-1-yl)-[1,3′-biazetidin]-1′-yl)-2-(2,6-dioxopiperidin-3-yl)isoindoline-1,3-dione trifluoroacetate] | 48 | –
13 | – | – | 3200 ± 973 | Nc1ncnc2c1c(-c1ccc(Oc3ccccc3)cc1)nn2C1CCN(C2CN(C3CN(c4cc5c(cc4F)C(=O)N(C4CCC(=O)NC4=O)C5=O)C3)C2)CC1 (centres unmarked) [Compound 21, 5-(3-(4-(4-amino-3-(4-phenoxyphenyl)-1H-pyrazolo[3,4-d]pyrimidin-1-yl)piperidin-1-yl)-[1,3′-biazetidin]-1′-yl)-2-(2,6-dioxopiperidin-3-yl)-6-fluoroisoindoline-1,3-dione] | – | bioavailability ([1]; Sprague-Dawley (SD), rat, plasma, po, i.g. 20 mg/kg (0.5% MC) vs i.v. 5 mg/kg): 12.4 ± 3.8%
14 | 631 | – | 473 ± 105 | Nc1ncnc2c1c(-c1ccc(Oc3ccccc3)cc1)nn2C1CCN(C2CN(C3CCC(Oc4ccc5c(c4)C(=O)N(C4CCC(=O)NC4=O)C5=O)CC3)C2)CC1 (centres unmarked) [Compound 37, 5-[4-[3-[4-[4-amino-3-(4-phenoxyphenyl)pyrazolo[3,4-d]pyrimidin-1-yl]-1-piperidyl]azetidin-1-yl]cyclohexoxy]-2-(2,6-dioxo-3-piperidyl)isoindoline-1,3-dione] | – | –
15 | – | – | – | Nc1ncnc2c1c(-c1ccc(Oc3ccccc3)cc1)nn2C1CCN(C2CCN(C3CN(c4ccc5c(c4)C(=O)N(C4CCC(=O)NC4=O)C5=O)C3)CC2F)CC1 (stereo not drawn) [Compound 49-2, cis-5-(3-(4-(4-amino-3-(4-phenoxyphenyl)-1H-pyrazolo[3,4-d]pyrimidin-1-yl)-3′-fluoro-[1,4′-bipiperidin]-1′-yl)azetidin-1-yl)-2-(2,6-dioxopiperidin-3-yl)isoindoline-1,3-dione-P2] | – | IC50 (Mino cells): 10 nM; F (%) ([1]; i.g. 20 mg/kg (0.5% MC) vs i.v. 5 mg/kg): 4.14 ± 2.1%; AUC(0-t) ([1]; plasma): 475 ± 237 ng·h/mL
